This is an account of results in patent US7186751B2, “Injectable composition of paclitaxel” (priority 2001, dated 2007).

Series [1] relates to rat. The note with it: cited from earlier work.
For series [2], the system named is rat. The note with it: ratio of LD50 in rat. The source says: The common stabilizer has danger in the safety in case of excessive use.

The term LD50 denotes the dose at which mortality reaches 50%.

Regarding `CC(=O)N[C@@H](CS)C(=O)O` [N-acetyl cysteine], the LD50 in series [1] is reported as 3600 mg/kg. The “Lower toxicity than citric acid” value in series [2] worked out at 90 times.
